These results are taken from patent US12528816B2, “Substituted imidazo [1,2-b] pyridazines and [1, 2, 4] triazolo [ 4,3-b] pyridazines as camkii inhibitors” (Cardurion Pharmaceuticals, INC., priority 2020, dated 2026).

For the assay, the target named is T1, human CaMKIIδ (Homo sapiens, UniProt Q13557).
T1 construct: Full-length, glutathione-S-transferase(GST)-tagged, human CaMKIIδ was purchased from Carna Biosciences; purchased Carna Biosciences (CaMKIIδ); Wako Pure Chemical Industries (calmodulin) 02-111
The assay can be described thus: Evaluation of in vitro CaMKII inhibitory activity (binding assay, TR-FRET). The note with it: in vitro CaMKII inhibitory activity (binding assay), human CaMKIIδ; read-out: Act. Put shortly: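 Inhibitors, in eight concentrations of 4-fold dilution, were incubated 1 h at room temperature with a protein–fluorescent probe premix preformed 30 min on ice, containing calmodulin and terbium anti-GST antibody. Displacement read by TR-FRET in duplicate; IC50 by logistic fitting.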
Background: Time-resolved FRET reads energy transfer from a long-lived donor to a nearby acceptor.
For `C[C@@H](Cn1cnnn1)Oc1cccc(-c2ccc3ncc(-c4nc[nH]c(=O)c4C#N)n3n2)c1` [compound 381], the IC50 is below 10 nM.
Then `C[C@@H](Cn1cnnn1)Oc1cccc(-c2ccc3ncn(-c4cc(C(F)F)ccc4C#N)c3n2)n1` [compound 382], with above 100 nM.
The figure for `C[C@@H](Cn1cnnn1)Oc1cncc(-c2ccc3ncn(-c4cc(C(F)F)ccc4C#N)c3n2)n1` [compound 384] is above 100 nM; for `C[C@@H](Cn1cnnn1)Oc1cccc(-c2ccc3ncn(-c4cc(OC(F)F)ccc4C#N)c3n2)n1` [compound 385] it is above 100 nM; for `C[C@@H](Cn1cnnn1)Oc1cccc(-c2ccc3ncc(-c4nc(Cl)ccc4C#N)n3n2)c1` [compound 386] it is below 10 nM.
The figure for `C[C@@H](Cn1cnnn1)Oc1cccc(-c2ccc3nnc(-c4cc(F)ccc4C#N)n3n2)c1` [compound 387] is above 100 nM.
Consider `C[C@@H](Cn1cnnn1)Oc1cccc(-c2ccc3ncc(-c4nc(C(F)F)ccc4C#N)n3n2)c1` [compound 388], for which the IC50 is below 10 nM.
Then `CC(=O)c1ccc(C#N)c(-c2cnc3ccc(-c4cccc(O[C@@H](C)Cn5cnnn5)c4)nn23)n1` [compound 389], with 10 to 100 nM.
With `CC(O)c1ccc(C#N)c(-c2cnc3ccc(-c4cccc(O[C@@H](C)Cn5cnnn5)c4)nn23)n1` (stereo partly drawn) [compound 390], the IC50 was below 10 nM.
The figure for `C[C@@H](Cn1cnnn1)Oc1cccc(-c2ccc3nnc(-c4ncccc4C#N)n3n2)c1` [compound 391] is above 100 nM.
Take `C[C@@H](Cn1cnnn1)Oc1cccc(-c2ccc3ncc(-c4ncnc(N)c4C#N)n3n2)c1` [compound 394]: the IC50 lay in the range of 10 to 100 nM.
The figure for `C[C@@H](Cn1cnnn1)Oc1cccc(-c2ccc3ncn(-c4cccc(C(F)F)c4C#N)c3n2)c1` [compound 395] is below 10 nM; for `COc1cc(F)cc(-n2cnc3ccc(-c4cncc(O[C@@H](C)Cn5cnnn5)n4)nc32)c1C#N` [compound 396] it is below 10 nM.
For `C[C@@H](Cn1cnnn1)Oc1cccc(-c2ccc3ncn(-c4cccc(C(F)F)c4C#N)c3n2)n1` [compound 397], the IC50 was above 100 nM.
Then `C[C@@H](Cn1cnnn1)Oc1cccc(-c2ccc3ncn(-c4cccc(OC(F)F)c4C#N)c3n2)n1` [compound 398], with 10 to 100 nM; and `COc1nccc(-c2cnc3ccc(-c4cccc(O[C@@H](C)Cn5cnnn5)c4)nn23)c1C#N` [compound 400], with below 10 nM.
Then `C[C@@H](Cn1cnnn1)Oc1cccc(-c2ccc3ncc(-c4nccc(C(F)F)c4C#N)n3n2)c1` [compound 401], with below 10 nM; and `COc1ncnc(-c2cnc3ccc(-c4ccc(F)c(O[C@@H](C)Cn5cnnn5)c4)nn23)c1C#N` [compound 402], with below 10 nM.
Then `COc1nccc(-c2cnc3ccc(-c4cccc(O[C@@H](C)Cn5cnnn5)n4)nn23)c1C#N` [compound 403], with below 10 nM.
Consider `COc1cccc(-c2cnc3ccc(-c4cccc(O[C@@H](C)Cn5cnnn5)n4)nn23)c1C#N` [compound 404, 2-methoxy-6-[6-(6-{[(2S)-1-(1H-tetrazol-1-yl)propan-2-yl]oxy}pyridin-2-yl)imidazo[1,2-b]pyridazin-3-yl]benzonitrile], for which the IC50 was below 10 nM.
Then `C[C@@H](Cn1cnnn1)Oc1cccc(-c2ccc3ncn(-c4cc(F)cc(OC(F)F)c4C#N)c3n2)n1` [compound 405], with below 10 nM; and `C[C@@H](Cn1cnnn1)Oc1cncc(-c2ccc3ncn(-c4cc(F)cc(OC(F)F)c4C#N)c3n2)n1` [compound 406], with 10 to 100 nM; and `C[C@@H](Cn1cnnn1)Oc1cccc(-c2ccc3ncn(-c4cc(F)cc(C(F)F)c4C#N)c3n2)n1` [compound 407], with 10 to 100 nM.
The figure for `COc1cc(F)c(C#N)c(-c2cnc3ccc(-c4cccc(O[C@@H](C)Cn5cnnn5)n4)nn23)c1` [compound 408] is below 10 nM.
The figure for `COc1cc(F)cc(-n2cnc3ccc(-c4cc(O[C@@H](C)Cn5cnnn5)ccn4)nc32)c1C#N` [compound 411] is below 10 nM; for `COc1ccnc(-c2cnc3ccc(-c4cccc(O[C@@H](C)Cn5cnnn5)n4)nn23)c1C#N` [compound 414] it is 10 to 100 nM.
`C[C@@H](Cn1cnnn1)Oc1cccc(-c2ccc3ncc(-c4cnccc4C#N)n3n2)n1` [compound 415]: the IC50 is below 10 nM.
For the compound `C[C@@H](Cn1cnnn1)Oc1cccc(-c2ccc3ncc(-c4ccc(F)cc4C#N)n3n2)n1` [compound 418], the IC50 was 10 to 100 nM.
The figure for `C[C@@H](Cn1cnnn1)Oc1cccc(-c2ccc3ncc(-c4cccc(F)c4C#N)n3n2)n1` [compound 419] is below 10 nM.
Then `COc1ccc(C#N)c(-c2cnc3ccc(-c4cccc(O[C@@H](C)Cn5cnnn5)n4)nn23)c1` [compound 420], with below 10 nM; and `C[C@@H](Cn1cnnn1)Oc1cccc(-c2ccc3ncc(-c4cc(F)cc(F)c4C#N)n3n2)n1` [compound 421], with below 10 nM; and `C[C@@H](Cn1cnnn1)Oc1cccc(-c2ccc3ncc(-c4c(C#N)ccc(F)c4F)n3n2)n1` [compound 422], with below 10 nM.
Then `C[C@@H](Cn1cnnn1)Oc1cccc(-c2ccc3ncc(-c4c(F)ccc(F)c4C#N)n3n2)n1` [compound 423], with below 10 nM; and `COc1cc(F)c(C#N)c(-n2cnc3ccc(-c4cccc(O[C@@H](C)Cn5cnnn5)n4)nc32)c1` [compound 424], with below 10 nM; and `C[C@@H](Cn1cnnn1)Oc1cccc(-c2ccc3ncc(-c4ccccc4C#N)n3n2)n1` [compound 425, 2-[6-(6-{[(2S)-1-(1H-tetrazol-1-yl)propan-2-yl]oxy}pyridin-2-yl)imidazo[1,2-b]pyridazin-3-yl]benzonitrile], with below 10 nM.
On to `COc1cccc(-c2cnc3ccc(-c4cncc(O[C@@H](C)Cn5cnnn5)n4)nn23)c1C#N` [compound 428, 2-methoxy-6-[6-(6-{[(2S)-1-(1H-tetrazol-1-yl)propan-2-yl]oxy}pyrazin-2-yl)imidazo[1,2-b]pyridazin-3-yl]benzonitrile], for which the IC50 is below 10 nM.
Then `COc1ccnc(-c2cnc3ccc(-c4cncc(O[C@@H](C)Cn5cnnn5)n4)nn23)c1C#N` [compound 429], with above 100 nM; and `COc1ccnc(-c2cnn3ccc(-c4cccc(O[C@@H](C)Cn5cnnn5)n4)nc23)c1C#N` [compound 430], with above 100 nM.
With `C[C@@H](Cn1cnnn1)Oc1cc(-c2ccc3ncc(-c4[nH]ccc(=O)c4C#N)n3n2)ccc1F` [compound 431, 2-[6-(4-fluoro-3-{[(2S)-1-(1H-tetrazol-1-yl)propan-2-yl]oxy}phenyl)imidazo[1,2-b]pyridazin-3-yl]-4-oxo-1,4-dihydropyridine-3-carbonitrile], the IC50 was above 100 nM.
Then `COc1cccc(-c2cnc3ccc(-c4ccc(F)c(O[C@@H](C)Cn5cnnn5)c4)nn23)n1` [compound 432], with below 10 nM.
The figure for `C[C@@H](Cn1cnnn1)Oc1cccc(-c2ccc3ncc(-c4cc(F)c(F)cc4C#N)n3n2)n1` [compound 433] is below 10 nM; for `C[C@@H](Cn1cnnn1)Oc1cccc(-c2ccc3ncc(-c4cc(F)cnc4C#N)n3n2)c1` [compound 434] it is below 10 nM.
The figure for `C[C@@H](Cn1cnnn1)Oc1cc(-c2ccc3ncc(-c4c(C#N)c(=O)ccn4CF)n3n2)ccc1F` [compound 436] is 10 to 100 nM; for `COc1ccnc(-c2cnn3ccc(-c4ccc(F)c(O[C@@H](C)Cn5cnnn5)c4)nc23)c1C#N` [compound 437] it is below 10 nM.
Turning to `COc1cc(F)cc(-c2cnc3ccc(-c4cc(O[C@@H](C)Cn5cnnn5)ccn4)nn23)c1C#N` [compound 438], the IC50 was below 10 nM.
Then `COc1cc(F)cc(-n2cnc3ccc(-c4ccc(F)c(O[C@@H](C)Cn5cnnn5)n4)nc32)c1C#N` [compound 439], with below 10 nM; and `COc1cc(OC)c(C#N)c(-n2cnc3ccc(-c4cccc(O[C@@H](C)Cn5cnnn5)n4)nc32)c1` [compound 440], with 10 to 100 nM; and `C[C@@H](Cn1cnnn1)Oc1cncc(-c2ccc3ncc(-c4cc(Cl)ccc4C#N)n3n2)n1` [compound 441], with below 10 nM.
The figure for `C[C@@H](Cn1cnnn1)Oc1cccc(-c2ccc3ncn(-c4cc(Cl)ccc4C#N)c3n2)n1` [compound 442] is below 10 nM.
Then `COc1cc(F)cc(-c2cnc3ccc(-c4cncc(O[C@@H](C)Cn5cncn5)n4)nn23)c1C#N` [compound 443], with below 10 nM; and `COc1ccnc(-c2cnc3ccc(-c4ccc(F)c(O[C@@H](C)Cn5ncnn5)c4)nn23)c1C#N` [compound 444], with below 10 nM; and `C[C@@H](Cn1cnnn1)Oc1cncc(-c2ccc3ncn(-c4cc(Cl)ccc4C#N)c3n2)n1` [compound 445], with 10 to 100 nM.
As to `C[C@@H](Cn1cnnn1)Oc1cncc(-c2ccc3ncn(-c4cccc(Cl)c4C#N)c3n2)n1` [compound 446], the IC50 is above 100 nM.
Then `C[C@@H](Cn1cnnn1)Oc1nc(-c2ccc3ncc(-c4cc(F)ccc4C#N)n3n2)ccc1F` [compound 449], with below 10 nM; and `C[C@@H](Cn1cnnn1)Oc1cccc(-c2ccc3ncc(-c4ncc(F)cc4C#N)n3n2)c1` [compound 450], with below 10 nM.
The figure for `C[C@@H](Cn1cnnn1)Oc1cccc(-c2ccc3ncc(-c4nc(F)c(F)cc4C#N)n3n2)c1` [compound 451] is below 10 nM; for `C[C@@H](Cn1cnnn1)Oc1cccc(-c2ccc3ncn(-c4cccc(Cl)c4C#N)c3n2)n1` [compound 453] it is 10 to 100 nM.
Then `COc1cc(Cl)cc(-n2cnc3ccc(-c4cccc(O[C@@H](C)Cn5cnnn5)n4)nc32)c1C#N` [compound 454], with below 10 nM; and `COc1cc(Cl)cc(-c2cnc3ccc(-c4cncc(O[C@@H](C)Cn5cnnn5)n4)nn23)c1C#N` [compound 455], with below 10 nM.
For the compound `COc1cc(OC)c(C#N)c(-c2cnc3ccc(-c4cccc(O[C@@H](C)Cn5cnnn5)n4)nn23)c1` [compound 456], the IC50 was below 10 nM.
